Results from PubChem BioAssay AID1963844 (Molecular Pharmacology Branch, DTP, NCI, 2024).

Test system: 422866-222-R5-J1-PDC complex spheroid viability
Assay: Anticancer human tumor 422866-222-R5-J1-PDC patient-derived pancreatic adenocarcinoma cell line growth inhibition [POLQ]
Details: for IC50: curve of first compound; for viability, T/C: stronger effect = lower value
How it was run: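 Three-cell-type spheroids modelling solid tumor plus stroma served as the readout system; POL inhibitors were tested individually and in combination, concentration ranges set by clinical Cmax where known.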

[1] = second compound 0.0316 µM, first compound 0.0316 µM
[2] = second compound 0.0316 µM, first compound 0.1 µM
[3] = second compound 0.0316 µM, first compound 0.316 µM
[4] = second compound 0.0316 µM, first compound 1 µM
[5] = second compound 0.1 µM, first compound 0.0316 µM
[6] = second compound 0.1 µM, first compound 0.1 µM
[7] = second compound 0.1 µM, first compound 0.316 µM
[8] = second compound 0.1 µM, first compound 1 µM
[9] = second compound 0.316 µM, first compound 0.0316 µM
[10] = second compound 0.316 µM, first compound 0.1 µM
[11] = second compound 0.316 µM, first compound 0.316 µM
[12] = second compound 0.316 µM, first compound 1 µM
[13] = second compound 1 µM, first compound 0.0316 µM
[14] = second compound 1 µM, first compound 0.1 µM
[15] = second compound 1 µM, first compound 0.316 µM
[16] = second compound 1 µM, first compound 1 µM
[17] = second compound 3.16 µM, first compound 0.0316 µM
[18] = second compound 3.16 µM, first compound 0.1 µM
[19] = second compound 3.16 µM, first compound 0.316 µM
[20] = second compound 3.16 µM, first compound 1 µM
[21] = second compound 10 µM, first compound 0.0316 µM
[22] = second compound 10 µM, first compound 0.1 µM
[23] = second compound 10 µM, first compound 0.316 µM
[24] = second compound 10 µM, first compound 1 µM
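Further: spheroids exposed to compounds for one week before readout.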
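Wherever viability, T/C is given: percent of DMSO vehicle wells luminescence so 100% = untreated viability.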

Compound: COc1cccc(OCCCN)c1-c1cc(Nc2cnc(C#N)cn2)n[nH]1 + Nc1ccc(C#CCN(C(=O)Cc2ncc(C(F)(F)F)cc2C(F)(F)F)c2ccc(F)cc2)nn1
- IC50 (second compound 0.0316 µM): 7.22 nM
- IC50 (second compound 0.1 µM): 6.75 nM
- IC50 (second compound 0.316 µM): 5.8 nM
- IC50 (second compound 1 µM): 5.89 nM
- IC50 (second compound 3.16 µM): 5.87 nM
- IC50 (second compound 10 µM): 7.34 nM
- viability, T/C (second compound 0.0316 µM, first compound 0.00316 µM): 82.4%
- viability, T/C (second compound 0.0316 µM, first compound 0.01 µM): 37.4%
- viability, T/C [1]: 33.4%
- viability, T/C [2]: 30.5%
- viability, T/C [3]: 35.9%
- viability, T/C [4]: 44.1%
- viability, T/C (second compound 0.1 µM, first compound 0.00316 µM): 62.6%
- viability, T/C (second compound 0.1 µM, first compound 0.01 µM): 45.9%
- viability, T/C [5]: 33.6%
- viability, T/C [6]: 32.8%
- viability, T/C [7]: 36.8%
- viability, T/C [8]: 54.3%
- viability, T/C (second compound 0.316 µM, first compound 0.00316 µM): 60.3%
- viability, T/C (second compound 0.316 µM, first compound 0.01 µM): 40.4%
- viability, T/C [9]: 36.1%
- viability, T/C [10]: 38.4%
- viability, T/C [11]: 27.1%
- viability, T/C [12]: 38%
- viability, T/C (second compound 1 µM, first compound 0.00316 µM): 68.9%
- viability, T/C (second compound 1 µM, first compound 0.01 µM): 33.9%
- viability, T/C [13]: 35%
- viability, T/C [14]: 38.6%
- viability, T/C [15]: 30.6%
- viability, T/C [16]: 29.4%
- viability, T/C (second compound 3.16 µM, first compound 0.00316 µM): 59.2%
- viability, T/C (second compound 3.16 µM, first compound 0.01 µM): 42.8%
- viability, T/C [17]: 38.5%
- viability, T/C [18]: 29%
- viability, T/C [19]: 32.2%
- viability, T/C [20]: 44.8%
- viability, T/C (second compound 10 µM, first compound 0.00316 µM): 76.1%
- viability, T/C (second compound 10 µM, first compound 0.01 µM): 40.1%
- viability, T/C [21]: 37.4%
- viability, T/C [22]: 36.5%
- viability, T/C [23]: 29%
- viability, T/C [24]: 38.6%

Compound: O=C(c1cc(Cc2n[nH]c(=O)c3ccccc23)ccc1F)N1CCN(C(=O)C2CC2)CC1 + Nc1ccc(C#CCN(C(=O)Cc2ncc(C(F)(F)F)cc2C(F)(F)F)c2ccc(F)cc2)nn1
- IC50 (second compound 0.0316 µM): > 10000 nM
- IC50 (second compound 0.1 µM): > 10000 nM
- IC50 (second compound 0.316 µM): > 10000 nM
- IC50 (second compound 1 µM): > 10000 nM
- IC50 (second compound 3.16 µM): > 10000 nM
- IC50 (second compound 10 µM): > 10000 nM
- viability, T/C [1]: 86.6%
- viability, T/C [2]: 109%
- viability, T/C [3]: 88.2%
- viability, T/C [4]: 97.9%
- viability, T/C (second compound 0.0316 µM, first compound 3.16 µM): 72.8%
- viability, T/C (second compound 0.0316 µM, first compound 10 µM): 73.6%
- viability, T/C [5]: 91.7%
- viability, T/C [6]: 95.8%
- viability, T/C [7]: 97.5%
- viability, T/C [8]: 93.8%
- viability, T/C (second compound 0.1 µM, first compound 3.16 µM): 80.2%
- viability, T/C (second compound 0.1 µM, first compound 10 µM): 61.4%
- viability, T/C [9]: 101%
- viability, T/C [10]: 103%
- viability, T/C [11]: 99.1%
- viability, T/C [12]: 102%
- viability, T/C (second compound 0.316 µM, first compound 3.16 µM): 76.2%
- viability, T/C (second compound 0.316 µM, first compound 10 µM): 65.8%
- viability, T/C [13]: 105%
- viability, T/C [14]: 90.1%
- viability, T/C [15]: 105%
- viability, T/C [16]: 84.5%
- viability, T/C (second compound 1 µM, first compound 3.16 µM): 70.2%
- viability, T/C (second compound 1 µM, first compound 10 µM): 53.7%
- viability, T/C [17]: 112%
- viability, T/C [18]: 109%
- viability, T/C [19]: 111%
- viability, T/C [20]: 90.3%
- viability, T/C (second compound 3.16 µM, first compound 3.16 µM): 84.2%
- viability, T/C (second compound 3.16 µM, first compound 10 µM): 65.9%
- viability, T/C [21]: 96.8%
- viability, T/C [22]: 104%
- viability, T/C [23]: 131%
- viability, T/C [24]: 115%
- viability, T/C (second compound 10 µM, first compound 3.16 µM): 91.9%
- viability, T/C (second compound 10 µM, first compound 10 µM): 68.6%
